Experiments:
Type in all cases: in vivo
[1] = system: Myzus persicae (Green Peach Aphid); assay: Myzus persicae, sunflower leaf disc spray test; settings: foliar, 144 h, sprayed sunflower leaf discs, aphid population of mixed ages, mortality after 6 DAT
Procedure: Sunflower leaf discs were placed on agar in a 24-well microtiter plate and sprayed with test solutions at an application rate of 200 ppm. After drying, the leaf discs were infested with an aphid population of mixed ages. After an incubation period of 6 DAT, samples were checked for mortality.

[2] = system: Thrips tabaci (Onion Thrips); assay: Thrips tabaci, sunflower leaf disc spray test; settings: foliar, 168 h, sprayed sunflower leaf discs, mortality after 7 days
[3] = system: Tetranychus urticae (Two-Spotted Spider Mite); assay: Tetranychus urticae, bean leaf disc spray test; settings: foliar, 192 h, sprayed bean leaf discs, mite populations of mixed ages, 8 days
Excerpt: Bean leaf discs on agar in 24-well microtiter plates were sprayed with test solutions at an application rate of 200 ppm. After drying, the leaf discs are infested with mite populations of mixed ages. 8 days later, discs were checked for mortality.

[4] = system: Diabrotica balteata (Corn Root Worm); assay: Diabrotica balteata, artificial diet MTP test; settings: 120 h, 200 ppm (concentration in well 18 ppm), L2 larvae, larval mortality after 5 days
Procedure: A 24-well microtiter plate (MTP) with artificial diet was treated with test solutions at an application rate of 200 ppm (concentration in well 18 ppm) by pipetting. After drying, the MTP's were infested with L2 larvae (6-10 per well). After an incubation period of 5 days, samples were checked for larval mortality The following compound gave at least 80% control of Diabrotica balteata: 1, 2, 3, 4, 5, 6, 7, 8, 9, 10, 11, 12, 13, 14, 15, 16, 17, 18, 19, 20, 21, 22, 23, 24, 25, 26, 27, 28, 29, 30, 31, 32, 33, 34, 35, 36, 37, 38, 39, 40, 41, 42, 43, 44, 45, 46, 47, 48, 49, 50, 51.

[5] = system: Plutella xylostella (Diamond Back Moth); assay: Plutella xylostella, artificial diet MTP test; settings: 144 h, 200 ppm (concentration in well 18 ppm), L2 larvae, 6 days
Procedure: 24-well microtiter plate (MTP) with artificial diet was treated with test solutions at an application rate of 200 ppm (concentration in well 18 ppm) by pipetting. After drying, the MTP's were infested with L2 larvae (7-12 per well). After an incubation period of 6 days, samples were checked for larval mortality and growth regulation. The following compound gave at least 80% mortality of Plutella xylostella: 1, 2, 3, 4, 5, 6, 7, 8, 9, 10, 11, 12, 13, 14, 15, 16, 17, 18, 19, 20, 21, 22, 23, 24, 25, 26, 27, 28, 29, 30, 31, 32, 33, 34, 35, 36, 37, 38, 39, 40, 41, 42, 43, 44, 45, 46, 47, 48, 49, 50.

[6] = system: Spodoptera littoralis (Egyptian Cotton Leafworm); assay: Spodoptera littoralis, cotton leaf disc spray test; settings: foliar, 72 h, sprayed cotton leaf discs, L1 larvae, 3 days after treatment
Excerpt: Cotton leaf discs were placed on agar in a 24-well microtiter plate and sprayed with test solutions at an application rate of 200 ppm. After drying, the leaf discs were infested with 5 L1 larvae. The samples were checked for mortality 3 days after treatment (DAT).

[7] = system: Myzus persicae (Green Peach Aphid); assay: Myzus persicae, sucrose solution / Parafilm test; settings: 120 h, mixed with sucrose solution under Parafilm, mortality 5 days after infestation
Excerpt: Test compounds were applied by pipette into 24 well plates and mixed with Sucrose solution. Application rate: 12.5 ppm. The plates were closed with a stretched Parafilm. A plastic stencil with 24 holes is placed onto the plate and infested pea seedlings were placed directly on the Parafilm. The infested plate is closed with a gel blotting paper and another plastic stencil and then turned upside down. 5 days after infestation the samples were checked on mortality.

CCc1cc(C(F)(C(F)(F)F)C(F)(F)Cl)cc(Br)c1NC(=O)c1cccc(NC(=O)c2ccncc2)c1F (centres unmarked) [Compound 17]
≥ 80%: pest or weed control at 200 ppm [1] | pest or weed control at 200 ppm [2] | mortality at 200 ppm [3] | pest or weed control at 200 ppm [4] | mortality at 200 ppm [5] | mortality at 200 ppm [6] | pest or weed control at 12.5 ppm [7]

CCc1cc(C(F)(C(F)(F)F)C(F)(F)Cl)cc(Br)c1NC(=O)c1cccc(NC(=O)c2cccnc2)c1F (centres unmarked) [Compound 18]
≥ 80%: pest or weed control at 200 ppm [1] | pest or weed control at 200 ppm [2] | mortality at 200 ppm [3] | pest or weed control at 200 ppm [4] | mortality at 200 ppm [5] | mortality at 200 ppm [6] | pest or weed control at 12.5 ppm [7]

CCc1cc(C(F)(C(F)(F)F)C(F)(F)Cl)cc(Br)c1NC(=O)c1cccc(NC(=O)c2ccc(C#N)cc2)c1F (centres unmarked) [Compound 19]
≥ 80%: pest or weed control at 200 ppm [1] | pest or weed control at 200 ppm [2] | mortality at 200 ppm [3] | pest or weed control at 200 ppm [4] | mortality at 200 ppm [5] | mortality at 200 ppm [6] | pest or weed control at 12.5 ppm [7]

CCc1cc(C(F)(C(F)(F)F)C(F)(F)Cl)cc(Br)c1NC(=O)c1cccc(NC(=O)c2ccncc2)c1OC (centres unmarked) [Compound 20]
≥ 80%: pest or weed control at 200 ppm [1] | pest or weed control at 200 ppm [2] | mortality at 200 ppm [3] | pest or weed control at 200 ppm [4] | mortality at 200 ppm [5] | mortality at 200 ppm [6] | pest or weed control at 12.5 ppm [7]

CCc1cc(C(F)(C(F)(F)F)C(F)(F)Cl)cc(Br)c1NC(=O)c1cccc(NC(=O)c2ccc(C#N)cc2)c1OC (centres unmarked) [Compound 22]
≥ 80%: pest or weed control at 200 ppm [1] | pest or weed control at 200 ppm [2] | mortality at 200 ppm [3] | pest or weed control at 200 ppm [4] | mortality at 200 ppm [5] | mortality at 200 ppm [6] | pest or weed control at 12.5 ppm [7]

CCc1cc(C(F)(C(F)(F)F)C(F)(F)Cl)cc(Br)c1NC(=O)c1cccc(NC(=O)c2cc[n+]([O-])cc2)c1F (centres unmarked) [Compound 27]
≥ 80%: pest or weed control at 200 ppm [1] | pest or weed control at 200 ppm [2] | mortality at 200 ppm [3] | pest or weed control at 200 ppm [4] | mortality at 200 ppm [5] | mortality at 200 ppm [6] | pest or weed control at 12.5 ppm [7]

CCc1cc(C(F)(C(F)(F)F)C(F)(F)Cl)cc(Br)c1NC(=O)c1cccc(NC(=O)c2ccc[n+]([O-])c2)c1F (centres unmarked) [Compound 28]
≥ 80%: pest or weed control at 200 ppm [1] | pest or weed control at 200 ppm [2] | mortality at 200 ppm [3] | pest or weed control at 200 ppm [4] | mortality at 200 ppm [5] | mortality at 200 ppm [6] | pest or weed control at 12.5 ppm [7]

CCc1cc(C(F)(C(F)(F)F)C(F)(F)Cl)cc(Br)c1NC(=O)c1cccc(NC(=O)c2cc[n+]([O-])cc2)c1OC (centres unmarked) [Compound 29]
≥ 80%: pest or weed control at 200 ppm [1] | pest or weed control at 200 ppm [2] | mortality at 200 ppm [3] | pest or weed control at 200 ppm [4] | mortality at 200 ppm [5] | mortality at 200 ppm [6] | pest or weed control at 12.5 ppm [7]

CCc1cc(C(F)(C(F)(F)F)C(F)(F)Cl)cc(Br)c1NC(=O)c1cccc(NC(=O)c2ccc[n+]([O-])c2)c1OC (centres unmarked) [Compound 30]
≥ 80%: pest or weed control at 200 ppm [1] | pest or weed control at 200 ppm [2] | mortality at 200 ppm [3] | pest or weed control at 200 ppm [4] | mortality at 200 ppm [5] | mortality at 200 ppm [6] | pest or weed control at 12.5 ppm [7]

CCc1cc(C(F)(C(F)(F)F)C(F)(F)Cl)cc(Br)c1NC(=O)c1cccc(N(CC)C(=O)c2ccc(C#N)cc2)c1F (centres unmarked) [Compound 33]
≥ 80%: pest or weed control at 200 ppm [1] | pest or weed control at 200 ppm [2] | mortality at 200 ppm [3] | pest or weed control at 200 ppm [4] | mortality at 200 ppm [5] | mortality at 200 ppm [6] | pest or weed control at 12.5 ppm [7]

CCc1cc(C(F)(C(F)(F)F)C(F)(F)Cl)cc(Br)c1NC(=O)c1cccc(N(CC)C(=O)c2ccc(C#N)cc2)c1OC (centres unmarked) [Compound 34]
≥ 80%: pest or weed control at 200 ppm [1] | pest or weed control at 200 ppm [2] | mortality at 200 ppm [3] | pest or weed control at 200 ppm [4] | mortality at 200 ppm [5] | mortality at 200 ppm [6] | pest or weed control at 12.5 ppm [7]

CCc1cc(C(F)(C(F)(F)F)C(F)(F)Cl)cc(Br)c1NC(=O)c1cccc(N(CC)C(=O)c2ccncc2)c1F (centres unmarked) [Compound 37]
≥ 80%: pest or weed control at 200 ppm [1] | pest or weed control at 200 ppm [2] | mortality at 200 ppm [3] | pest or weed control at 200 ppm [4] | mortality at 200 ppm [5] | mortality at 200 ppm [6] | pest or weed control at 12.5 ppm [7]

CCc1cc(C(F)(C(F)(F)F)C(F)(F)Cl)cc(Br)c1NC(=O)c1cccc(N(CC)C(=O)c2ccncc2)c1OC (centres unmarked) [Compound 38]
≥ 80%: pest or weed control at 200 ppm [1] | pest or weed control at 200 ppm [2] | mortality at 200 ppm [3] | pest or weed control at 200 ppm [4] | mortality at 200 ppm [5] | mortality at 200 ppm [6] | pest or weed control at 12.5 ppm [7]

CCc1cc(C(F)(C(F)(F)F)C(F)(F)Cl)cc(Br)c1NC(=O)c1cccc(N(CC)C(=O)c2cccnc2)c1OC (centres unmarked) [Compound 42]
≥ 80%: pest or weed control at 200 ppm [1] | pest or weed control at 200 ppm [2] | mortality at 200 ppm [3] | pest or weed control at 200 ppm [4] | mortality at 200 ppm [5] | mortality at 200 ppm [6] | pest or weed control at 12.5 ppm [7]

CCc1cc(C(F)(C(F)(F)F)C(F)(F)Cl)cc(Br)c1NC(=O)c1cccc(N(CC)C(=O)c2cc[n+]([O-])cc2)c1F (centres unmarked) [Compound 45]
≥ 80%: pest or weed control at 200 ppm [1] | pest or weed control at 200 ppm [2] | mortality at 200 ppm [3] | pest or weed control at 200 ppm [4] | mortality at 200 ppm [5] | mortality at 200 ppm [6] | pest or weed control at 12.5 ppm [7]

CCc1cc(C(F)(C(F)(F)F)C(F)(F)Cl)cc(Br)c1NC(=O)c1cccc(N(CC)C(=O)c2cc[n+]([O-])cc2)c1OC (centres unmarked) [Compound 46]
≥ 80%: pest or weed control at 200 ppm [1] | pest or weed control at 200 ppm [2] | mortality at 200 ppm [3] | pest or weed control at 200 ppm [4] | mortality at 200 ppm [5] | mortality at 200 ppm [6] | pest or weed control at 12.5 ppm [7]

CCc1cc(C(F)(C(F)(F)F)C(F)(F)Cl)cc(Br)c1NC(=O)c1cccc(N(CC)C(=O)c2ccc[n+]([O-])c2)c1F (centres unmarked) [Compound 49]
≥ 80%: pest or weed control at 200 ppm [1] | pest or weed control at 200 ppm [2] | mortality at 200 ppm [3] | pest or weed control at 200 ppm [4] | mortality at 200 ppm [5] | mortality at 200 ppm [6] | pest or weed control at 12.5 ppm [7]

CCN(C(=O)c1ccncc1)c1cccc(C(=O)Nc2c(Cl)cc(C(F)(C(F)F)C(F)(F)F)cc2Br)c1OC (centres unmarked) [Compound 51, N-[3-[[2-bromo-6-chloro-4-[1-(difluoromethyl)-1,2,2,2-tetrafluoro-ethyl]phenyl]carbamoyl]-2-methoxy-phenyl]-N-ethyl-pyridine-4-carboxamide]
≥ 80%: pest or weed control at 200 ppm [1] | pest or weed control at 200 ppm [2] | mortality at 200 ppm [3] | pest or weed control at 200 ppm [4] | mortality at 200 ppm [6] | pest or weed control at 12.5 ppm [7]

Reference: patent USRE49022E1, “Insecticidal compounds” (SYNGENTA PARTICIPATIONS AG, priority 2013, dated 2022)
